Where a name gives a salt, the structure may show the parent alone. Read-outs that look alike come from different tables or passages of the source.
System: ATGL-KO iPSCs
Test: High throughput iPSC chemical screening, Oil Red O (ORO) lipid accumulation; as to Z-score: test concentration or dose not given here
Assay type: cell-based, mouse
Details: for Rank in normalized ORO score from screen: glycolytic switch compounds
[1] = normalized ORO level vs DMSO-treated cells, compound present during 7 days differentiation, 96-well, negative = decrease in lipid accumulation

Row | Molecule | Rank in normalized ORO score from screen | Z-score [1] | Z-score
1 | O=C1C=CC(=O)c2c1ccc1c2ccc2ccccc21 [Chrysene-1,4-quinone] | 133 | −1.1808 | 
2 | O=C(O)c1ccccc1C(=O)Nc1ccc(S(=O)(=O)Nc2nccs2)cc1 [Phthalylsulfathiazole] |  | −1.0074 | 
3 | COc1cc2c(cc1O)[C@@H]1Cc3ccc(OC)c(O)c3CN1CC2 [Scoulerine] |  | 19.9884 | 
4 | Dihydroergotoxine mesylate |  | 1.217 | 
5 | Cc1nc2n(c(=O)c1CCN1CCC(c3noc4cc(F)ccc34)CC1)CCCC2 [Risperidone] |  | −0.0533 | 
6 | C[N+](C)(CCOc1ccccc1)Cc1ccccc1.O=C([O-])c1cc2ccccc2cc1O [Bephenium hydroxynaphthoate] |  | −0.5444 | 
7 | NS(=O)(=O)c1cc2c(cc1Cl)N=CNS2(=O)=O [Chlorothiazide] |  | −0.1987 | 
8 | COc1ccn(C)c(=O)c1C#N [Ricinine] |  | −1.4299 | 
9 | CCOC1O[C@H]([C@@H](COCc2ccccc2)OCc2ccccc2)[C@H](OCc2ccccc2)[C@H]1O (some centres unmarked) [Tribenoside] |  | −0.7171 | 
10 | CC[C@@H](C)C(=O)O[C@H]1[C@H](O)[C@H]2[C@@H](CN3C[C@@H](C)CC[C@H]3[C@@]2(C)O)[C@@H]2C[C@]34O[C@]5(O)[C@@H](OC(=O)[C@@](C)(O)CC)CC[C@@]3(C)[C@@H]5[C@@H](OC(C)=O)[C@@H](OC(C)=O)[C@H]4[C@@]21O [Protoveratrine A] |  | 1.895 | 
11 | Clc1ccccc1CN1CCc2sccc2C1 [Ticlopidine hydrochloride] |  | −1.0702 | 
12 | CN1CCN(C(c2ccccc2)c2ccc(Cl)cc2)CC1 (centres unmarked) [(1-[(4-Chlorophenyl)phenyl-methyl]-4-methylpiperazine)] | 720 | 0.241 | 
13 | c1ccc2c(CC3=NCCN3)cccc2c1 [Naphazoline hydrochloride] |  | −0.8458 | 
14 | Cotinine (−) |  | 0.644 | 
15 | COc1cc(NC(C)CCCN)c2ncccc2c1 (centres unmarked) [Primaquine diphosphate] |  | 5.51 | 
16 | CC(=O)[C@H]1CC[C@H]2[C@@H]3CC=C4C[C@@H](O)CC[C@]4(C)[C@H]3CC[C@]12C [Pregnenolone] | 924 | 1.076 | 
17 | COC(=O)Nc1nc2ccc(C(=O)c3cccs3)cc2[nH]1 [Nocodazole] |  | 18.0445 | 
18 | COc1ccc(C[C@H]2NC[C@H](O)[C@H]2OC(C)=O)cc1 [Anisomycin] |  | 30.3787 | 
19 | CC[C@H]1OC(=O)[C@H](C)[C@@H](O[C@H]2C[C@@](C)(OC)[C@@H](O)[C@H](C)O2)[C@H](C)[C@@H](O[C@@H]2O[C@H](C)C[C@H](N(C)C)[C@H]2O)[C@](C)(O)C[C@@H](C)C(=O)[C@H](C)[C@@H](O)[C@]1(C)O [Erythromycin] |  | 1.131 | 
20 | C[C@]12CC[C@H]3[C@@H](CC[C@]4(O)C[C@@H](O)CC[C@]34C=O)[C@@]1(O)CC[C@@H]2C1=CC(=O)OC1 [Strophanthidin] |  | 0.6732 | 
21 | C/C(=C(\CCOP(=O)(O)O)SC(=O)c1ccccc1)N(C=O)Cc1cnc(C)nc1N [Benfotiamine] |  | −0.7979 | 
22 | c1cnc(N2CCN(Cc3ccc4c(c3)OCO4)CC2)nc1 [Piribedil hydrochloride] |  | −1.3522 | 
23 | Spiramycin |  | −1.0612 | 
24 | CN(C)C(=N)N=C(N)N [Metformin hydrochloride] |  | 0.7664 | 
25 | OCCN1CCN(CCCN2c3ccccc3Sc3ccc(C(F)(F)F)cc32)CC1 [Fluphenazine dihydrochloride] |  | 0.4317 | 
26 | CN1C(C(=O)Nc2ccccn2)=C(O)c2sccc2S1(=O)=O [Tenoxicam] |  | −0.5016 | 

Row | Molecule | Rank in normalized ORO score from screen | Z-score [1] | Z-score
27 | C[N+](C)(C)CCCCCCCCCC[N+](C)(C)C [Decamethonium bromide] |  | −0.0864 | 
28 | OCc1cc(C(O)CNCCCCCCOCCCCc2ccccc2)ccc1O (centres unmarked) [Salmeterol] |  | 0.4502 | 
29 | O=C(O)COCCN1CCN(C(c2ccccc2)c2ccc(Cl)cc2)CC1 (centres unmarked) [Cetirizine dihydrochloride] |  | −0.3764 | 
30 | COC(=O)[C@@H]1[C@H]2C[C@H]3c4[nH]c5ccccc5c4CCN3C[C@@H]2CC[C@@H]1O [Yohimbine hydrochloride] |  | −1.0356 | 
31 | CCOC(=O)[C@@](C)(N)Cc1ccc(O)c(O)c1 [Methyldopate hydrochloride] |  | 0.5054 | 
32 | Cc1c(NC(=O)c2cccnc2)c(=O)n(-c2ccccc2)n1C [Nifenazone] |  | 0.1131 | 
33 | C[C@H](CCC(=O)O)[C@H]1CC[C@H]2[C@@H]3[C@H](O)C[C@@H]4C[C@H](O)CC[C@]4(C)[C@H]3CC[C@]12C [Chenodiol] |  | −1.6767 | 
34 | CCC(=O)O[C@]1(C(=O)SCF)[C@H](C)C[C@H]2[C@@H]3C[C@H](F)C4=CC(=O)C=C[C@]4(C)[C@@]3(F)[C@@H](O)C[C@@]21C [Fluticasone propionate] |  | −1.0154 | 
35 | Retrorsine |  | 0.08676 | 
36 | C[C@H]1C[C@H]2[C@@H]3CCC4=CC(=O)C=C[C@]4(C)[C@@]3(F)[C@@H](O)C[C@]2(C)[C@@]1(O)C(=O)CO [Betamethasone] |  | −0.1891 | 
37 | Cc1onc(-c2c(F)cccc2Cl)c1C(=O)N[C@@H]1C(=O)N2[C@@H]1SC(C)(C)[C@@H]2C(=O)O [Flucloxacillin sodium] |  | 0.5241 | 
38 | Nc1ccc(S(=O)(=O)Nc2ncccn2)cc1 [Sulfadiazine] |  | 0.09783 | 
39 | NS(=O)(=O)c1cc(C(=O)O)c(NCc2ccco2)cc1Cl [Furosemide] |  | 0.5074 | 
40 | OCC(O)CN1CCN(c2ccccc2)CC1 (racemic) [Dropropizine (R,S)] |  | 0.6396 | 
41 | Cl.O=c1[nH]oc2c1CCNC2 [THIP Hydrochloride] |  | −1.3776 | 
42 | C[n+]1cc2c3c(ccc2c2ccc4cc5c(cc4c21)OCO5)OCO3 [Sanguinarine] |  | 31.0936 | 
43 | Oc1ccc(OCc2ccccc2)cc1 [Monobenzone] |  | −1.7289 | 
44 | NS(=O)(=O)c1cc2c(cc1Cl)N=C(CSCc1ccccc1)NS2(=O)=O [Benzthiazide] |  | −1.594 | 
45 | C/C=C1/C[N@+]2(C)CC[C@]34C(=C(C=O)[C@H]1C[C@@H]32)Nc1ccccc14.[Cl-] [Fluorocurarine chloride] |  | −1.1648 | 
46 | O.O=C(O)[C@@H]1[C@H]2C[C@H]3c4[nH]c5ccccc5c4CCN3C[C@@H]2CC[C@@H]1O [Yohimbinic acid monohydrate] |  | −0.0239 | 
47 | CC(CNC1CCCCC1)OC(=O)c1ccccc1 (centres unmarked) [Hexylcaine hydrochloride] |  | 0.687 | 
48 | CCCCC1C(=O)N(c2ccccc2)N(c2ccc(O)cc2)C1=O (centres unmarked) [Oxyphenbutazone] |  | −1.1165 | 
49 | COCCCC/C(=N\OCCN)c1ccc(C(F)(F)F)cc1 [Fluvoxamine maleate] |  | −1.2293 | 
50 | CC[C@H]1CN2CCc3cc(OC)c(OC)cc3[C@@H]2C[C@@H]1C[C@H]1NCCc2cc(OC)c(OC)cc21 [Emetine dihydrochloride] |  | 32.7653 | 
51 | Nc1ccc(S(=O)(=O)Nc2nccs2)cc1 [Sulfathiazole] |  | 0.1226 | 
52 | CNCCC(Oc1ccccc1OC)c1ccccc1 (centres unmarked) [Nisoxetine hydrochloride] |  |  | −1.699

Row | Molecule | Rank in normalized ORO score from screen | Z-score [1] | Z-score
53 | CN(C)CCN(Cc1cccs1)c1ccccn1 [Methapyrilene hydrochloride] |  | −0.1861 | 
54 | O=C(NCNC(=O)NC1C(=O)NC(=O)N1CO)NC1C(=O)NC(=O)N1CO (centres unmarked) [Imidurea] |  | 0.2567 | 
55 | [H]/N=C(\N/C(=N/[H])Nc1ccc(Cl)cc1)NC(C)C [Proguanil hydrochloride] |  | 16.0329 | 
56 | C[C@H]1[C@H](C)CC[C@]2(C(=O)O)CC[C@]3(C)C(=CC[C@@H]4[C@@]5(C)CC[C@H](O)C(C)(C)[C@@H]5CC[C@]43C)[C@H]12 [Ursolic acid] |  | −0.1541 | 
57 | CCC(C)(C)C(=O)O[C@H]1C[C@@H](C)C=C2C=C[C@H](C)[C@H](CC[C@@H]3C[C@@H](O)CC(=O)O3)[C@H]21 [Simvastatin] |  | 15.173 | 
58 | NC[C@@H]1O[C@H](O[C@H]2[C@@H](O)[C@H](O[C@@H]3[C@@H](O)[C@H](N)C[C@H](N)[C@H]3O[C@H]3O[C@H](CN)[C@@H](O)[C@H](O)[C@H]3N)O[C@@H]2CO)[C@H](N)[C@@H](O)[C@@H]1O.O=S(=O)(O)O [Neomycin sulfate] |  | −0.2127 | 
59 | Clc1ccc(C(Cn2ccnc2)OCc2c(Cl)cccc2Cl)c(Cl)c1 (centres unmarked) [Isoconazole] |  | −1.2562 | 
60 | CCN(CC)CC#CCOC(=O)C(O)(c1ccccc1)C1CCCCC1 (centres unmarked) [Oxybutynin chloride] |  | −1.0993 | 
61 | CC[C@H]1CN2CCc3cc(OC)c(OC)cc3[C@@H]2C[C@@H]1C[C@H]1NCCc2cc(O)c(OC)cc21.Cl.Cl.O.O.O.O.O.O.O [Cephaeline dihydrochloride heptahydrate] |  | 26.5614 | 
62 | CNCCC=C1c2ccccc2C=Cc2ccccc21 [Norcyclobenzaprine] |  | −0.6046 | 
63 | Cc1ccccc1OCC(O)CO (centres unmarked) [Mephenesin] |  | −0.9401 | 
64 | CC(C)NC[C@@H](O)c1ccc(O)c(O)c1.O=C(O)C(O)C(O)C(=O)O [(+)-Isoproterenol (+)-bitartrate salt] |  | −0.728 | 
65 | CC1(C)S[C@@H]2[C@H](NC(=O)[C@H](C(=O)O)c3ccsc3)C(=O)N2[C@H]1C(=O)O [Ticarcillin sodium] |  | −0.1446 | 
66 | CNCC(O)c1ccc(OC(=O)C(C)(C)C)c(OC(=O)C(C)(C)C)c1 (centres unmarked) [Dipivefrin hydrochloride] |  | 1.363 | 
67 | CC[C@]12CCCN3CCc4c(n(c5ccccc45)[C@@](O)(C(=O)OC)C1)[C@@H]32 [Vincamine] |  | −0.4826 | 
68 | Cc1ccccc1N1C(=O)c2cc(S(N)(=O)=O)c(Cl)cc2NC1C (centres unmarked) [Metolazone] |  | −0.7452 | 
69 | O=C(O)c1cccnc1 [Niacin] |  | −0.8285 | 
70 | CN(C)CCCN1c2ccccc2Sc2ccc(C(F)(F)F)cc21 [Triflupromazine hydrochloride] | 644 | 0.04449 | 
71 | Guanadrel sulfate |  | −0.4661 | 
72 | CN1CCN2c3ccccc3Cc3ccccc3C2C1 (centres unmarked) [Mianserine hydrochloride] |  | −1.3517 | 
73 | CC(N)CCCC(C)(C)O (centres unmarked) [Heptaminol hydrochloride] |  | −0.2987 | 
74 | CC1CCc2cc(F)cc3c(=O)c(C(=O)O)cn1c23 (centres unmarked) [Flumequine] |  | −0.8648 | 
75 | (S)-(−)-Atenolol |  | 0.7787 | 
76 | COC1=CC(=O)O[C@@H](/C=C/c2ccccc2)C1 [Kawain] |  | −0.5048 | 

Reference: patent US9393221B2, “Methods and compounds for reducing intracellular lipid storage” (THE GENERAL HOSPITAL CORPORATION, priority 2011, dated 2016)
